Data: PMC6015499 (Journal of medicinal chemistry, 2017)

Test: PAMPA permeability
Type: in vitro ADME

For `Cc1ccccc1-c1nc(CN2CCC(C(=O)NCCCN3CCCCC3)CC2)c(C)o1` [7h, N-(3-(Piperidin-1-yl)propyl)-1-((5-methyl-2-(o-tolyl)oxazol-4-yl)-methyl)piperidine-4-carboxamide], the PAMPA permeability was 34.5 1×10^−6 cm/s.

For `Cc1oc(-c2c(C)c(C)c(C)c(C)c2C)nc1CN1CCC(C(=O)NCCCN2C[C@H](C)C[C@H](C)C2)CC1` [7cc, N-(3-(cis-3,5-Dimethylpiperidin-1-yl)propyl)-1-((2-(2,3,4,5,6-pentamethylphenyl)-5-methyloxazol-4-yl)methyl)piperidine-4-carboxamide], the PAMPA permeability was 455.2 1×10^−6 cm/s.

With `Cc1ccccc1-c1nc(CN2CCC(C(=O)NCCCN3C[C@H](C)C[C@@H](C)C3)CC2)c(C)o1` (racemic) [7b, (±)-N-(3-(trans-3,5-Dimethylpiperidin-1-yl)propyl)-1-((5-methyl-2-(o-tolyl)oxazol-4-yl)methyl)piperidine-4-carboxamide] the PAMPA permeability was 553.7 1×10^−6 cm/s.

For `Cc1cccc(Cl)c1-c1nc(CN2CCC(C(=O)NCCCN3C[C@H](C)C[C@H](C)C3)CC2)c(C)o1` [7nn, N-(3-(cis-3,5-Dimethylpiperidin-1-yl)propyl)-1-((2-(2-chloro-6-methylphenyl)-5-methyloxazol-4-yl)methyl)piperidine-4-carboxamide], the PAMPA permeability was 196.3 1×10^−6 cm/s.

For `Cc1ccccc1-c1nc(CN2CCC(C(=O)NCCCN3CCC(C(C)C)CC3)CC2)c(C)o1` [7e, N-(3-(4-Isopropylpiperidin-1-yl)propyl)-1-((5-methyl-2-(o-tolyl)-oxazol-4-yl)methyl)piperidine-4-carboxamide], the PAMPA permeability was 395.6 1×10^−6 cm/s.

For `Cc1ccccc1-c1nc(CN2CCC(C(=O)NCCCN3C[C@H](C)C[C@H](C)C3)CC2)c(C)o1` [7a, N-(3-(cis-3,5-Dimethylpiperidin-1-yl)propyl)-1-((5-methyl-2-(o-tolyl)oxazol-4-yl)-methyl)piperidine-4-carboxamide], the PAMPA permeability was 489.1 1×10^−6 cm/s.

With `CCN(CC)CCCCNC(=O)C1CCN(Cc2nc(-c3ccc(OC)c(OC)c3)oc2C)CC1` [7zz, N-(4-(Diethylamino)butyl)-1-((2-(3,4-dimethoxyphenyl)-5-methyloxazol-4-yl)methyl)piperidine-4-carboxamide] the PAMPA permeability was 10.4 1×10^−6 cm/s.

With `Cc1ccc(-c2nc(CN3CCC(C(=O)NCCCN4C[C@H](C)C[C@H](C)C4)CC3)c(C)o2)c(C)c1` [7y, N-(3-(cis-3,5-Dimethylpiperidin-1-yl)propyl)-1-((2-(2,4-dimethylphenyl)-5-methyloxazol-4-yl)methyl)piperidine-4-carboxamide] the PAMPA permeability was 353.1 1×10^−6 cm/s.

For `Cc1cc(-c2nc(CN3CCC(C(=O)NCCCN4C[C@H](C)C[C@H](C)C4)CC3)co2)ccc1F` [18a, N-(3-(cis-3,5-Dimethylpiperidin-1-yl)propyl)-1-((2-(4-fluoro-3-methylphenyl)oxazol-4-yl)methyl)piperidine-4-carboxamide], the PAMPA permeability was 215.4 1×10^−6 cm/s.

For `CC[C@@H]1C[C@H](CC)CN(CCCNC(=O)C2CCN(Cc3nc(-c4c(F)cccc4F)oc3C)CC2)C1` [7kk, N-(3-(cis-3,5-Diethylpiperidin-1-yl)propyl)-1-((2-(2,6-difluorophenyl)-5-methyloxazol-4-yl)methyl)piperidine-4-carboxamide], the PAMPA permeability was 129.9 1×10^−6 cm/s.

For `CCCN(CCC)CCNC(=O)C1CCN(Cc2nc(-c3ccccc3C)oc2C)CC1` [7p, N-(2-(Dipropylamino)ethyl)-1-((5-methyl-2-(o-tolyl)oxazol-4-yl)-methyl)piperidine-4-carboxamide], the PAMPA permeability was 913.1 1×10^−6 cm/s.

In the case of `Cc1cccc(-c2nc(CN3CCC(C(=O)NCCCN4C[C@H](C)C[C@H](C)C4)CC3)c(C)o2)c1` [7t, N-(3-(cis-3,5-Dimethylpiperidin-1-yl)propyl)-1-((5-methyl-2-(mtolyl)oxazol-4-yl)methyl)piperidine-4-carboxamide], the PAMPA permeability is reported as 279.1 1×10^−6 cm/s.

In the case of `Cc1cccc(F)c1-c1nc(CN2CCC(C(=O)NCCCN3C[C@H](C)C[C@H](C)C3)CC2)c(C)o1` [7ss, N-(3-(cis-3,5-Dimethylpiperidin-1-yl)propyl)-1-((2-(2-fluoro-6-methylphenyl)-5-methyloxazol-4-yl)methyl)piperidine-4-carboxamide], the PAMPA permeability is reported as 233.8 1×10^−6 cm/s.

For `Cc1cccc(Cl)c1-c1nc(CN2CCC(C(=O)NCCCN3CCCC(C)C3)CC2)c(C)o1` (racemic) [7oo, (±)-1-((2-(2-Chloro-6-methylphenyl)-5-methyloxazol-4-yl)-methyl)-N-(3-(3-methylpiperidin-1-yl)propyl)piperidine-4-carboxamide], the PAMPA permeability was 650.6 1×10^−6 cm/s.

With `CC[C@@H]1C[C@H](CC)CN(CCCNC(=O)C2CCN(Cc3nc(-c4ccccc4C)oc3C)CC2)C1` [7c, N-(3-(cis-3,5-Diethylpiperidin-1-yl)propyl)-1-((5-methyl-2-(otolyl)oxazol-4-yl)methyl)piperidine-4-carboxamide] the PAMPA permeability was 1267 1×10^−6 cm/s.

With `Cc1cccc(C)c1-c1nc(CN2CCC(C(=O)NCCCN3C[C@H](C)C[C@H](C)C3)CC2)c(C)o1` [7w, N-(3-(cis-3,5-Dimethylpiperidin-1-yl)propyl)-1-((2-(2,6-dimethylphenyl)-5-methyloxazol-4-yl)methyl)piperidine-4-carboxamide] the PAMPA permeability was 253.9 1×10^−6 cm/s.

In the case of `Cc1oc(-c2cccc(Cl)c2)nc1CN1CCC(C(=O)NCCCN2C[C@H](C)C[C@H](C)C2)CC1` [7ee, N-(3-(cis-3,5-Dimethylpiperidin-1-yl)propyl)-1-((2-(3-chlorophenyl)-5-methyloxazol-4-yl)methyl)piperidine-4-carboxamide], the PAMPA permeability is reported as 615.1 1×10^−6 cm/s.

With `Cc1ccccc1-c1nc(CN2CCC(C(=O)N3CCN(C4CCN(C)CC4)CC3)CC2)c(C)o1` [7r, (1-((5-Methyl-2-(o-tolyl)oxazol-4-yl)methyl)piperidin-4-yl)(4-(1-methylpiperidin-4-yl)piperazin-1-yl)methanone] the PAMPA permeability was <3.2 1×10^−6 cm/s.

With `COc1ccc(-c2nc(CN3CCC(C(=O)NCCCN4C[C@H](C)C[C@H](C)C4)CC3)c(C)o2)cc1OC` [7yy] the PAMPA permeability was 81.9 1×10^−6 cm/s.

With `Cc1ccccc1-c1nc(CN2CCC(C(=O)NCCN3C[C@H](C)C[C@H](C)C3)CC2)c(C)o1` [7n, N-(3-(cis-3,5-Dimethylpiperidin-1-yl)ethyl)-1-((5-methyl-2-(otolyl)oxazol-4-yl)methyl)piperidine-4-carboxamide] the PAMPA permeability was 712.4 1×10^−6 cm/s.

For `Cc1ccccc1-c1nc(CN2CCC(C(=O)N3CCN(CCN(C)C)CC3)CC2)c(C)o1` [7s, (4-(2-(Dimethylamino)ethyl)piperazin-1-yl)(1-((5-methyl-2-(otolyl)oxazol-4-yl)methyl)piperidin-4-yl)methanone], the PAMPA permeability was 14 1×10^−6 cm/s.

For `Cc1ccccc1-c1nc(CN2CCC(C(=O)NCCCN3CCCC(CC(C)C)C3)CC2)c(C)o1` (racemic) [7l, (±)-N-(3-(3-Isobutylpiperidin-1-yl)propyl)-1-((5-methyl-2-(otolyl)oxazol-4-yl)methyl)piperidine-4-carboxamide], the PAMPA permeability was 3 1×10^−6 cm/s.

In the case of `Cc1cc(C)cc(-c2nc(CN3CCC(C(=O)NCCCN4C[C@H](C)C[C@H](C)C4)CC3)c(C)o2)c1` [7z, N-(3-(cis-3,5-Dimethylpiperidin-1-yl)propyl)-1-((2-(3,5-dimethylphenyl)-5-methyloxazol-4-yl)methyl)piperidine-4-carboxamide], the PAMPA permeability is reported as 864 1×10^−6 cm/s.

For `Cc1ccc(-c2nc(CN3CCC(C(=O)NCCCN4C[C@H](C)C[C@H](C)C4)CC3)c(C)o2)cc1` [7u, N-(3-(cis-3,5-Dimethylpiperidin-1-yl)propyl)-1-((5-methyl-2-(ptolyl)oxazol-4-yl)methyl)piperidine-4-carboxamide], the PAMPA permeability was 274.3 1×10^−6 cm/s.

In the case of `Cc1ccccc1-c1nc(CN2CCC(C(=O)NCCCN3CCC(C)CC3)CC2)c(C)o1` [7g, N-(3-(4-Methylpiperidin-1-yl)propyl)-1-((5-methyl-2-(o-tolyl)-oxazol-4-yl)methyl)piperidine-4-carboxamide], the PAMPA permeability is reported as 424.7 1×10^−6 cm/s.

For `Cc1ccccc1-c1nc(CN2CCC(C(=O)NCCCN3CC(C)(C)CC(C)(C)C3)CC2)c(C)o1` [7d, 1-((5-Methyl-2-(o-tolyl)oxazol-4-yl)methyl)-N-(3-(cis-3,3,5,5-tetramethylpiperidin-1-yl)propyl)piperidine-4-carboxamide], the PAMPA permeability was >1397 1×10^−6 cm/s.

For `COc1cccc(Cl)c1-c1nc(CN2CCC(C(=O)NCCCN3C[C@H](C)C[C@H](C)C3)CC2)c(C)o1` [7uu, N-(3-(cis-3,5-Dimethylpiperidin-1-yl)propyl)-1-((2-(2-chloro-6-methoxyphenyl)-5-methyloxazol-4-yl)methyl)piperidine-4-carboxamide], the PAMPA permeability was 51.0 1×10^−6 cm/s.

For `Cc1oc(-c2ccc(Cl)cc2)nc1CN1CCC(C(=O)NCCCN2C[C@H](C)C[C@H](C)C2)CC1` [7ff, N-(3-(cis-3,5-Dimethylpiperidin-1-yl)propyl)-1-((2-(4-chlorophenyl)-5-methyloxazol-4-yl)methyl)piperidine-4-carboxamide], the PAMPA permeability was >635.0 1×10^−6 cm/s.

For `Cc1oc(-c2ccccc2Cl)nc1CN1CCC(C(=O)NCCCN2C[C@H](C)C[C@H](C)C2)CC1` [7dd, N-(3-(cis-3,5-Dimethylpiperidin-1-yl)propyl)-1-((2-(2-chlorophenyl)-5-methyloxazol-4-yl)methyl)piperidine-4-carboxamide], the PAMPA permeability was 352.4 1×10^−6 cm/s.

For `COc1cccc(Br)c1-c1nc(CN2CCC(C(=O)NCCCN3C[C@H](C)C[C@H](C)C3)CC2)c(C)o1` [7tt, N-(3-(cis-3,5-Dimethylpiperidin-1-yl)propyl)-1-((2-(2-bromo-6-methoxyphenyl)-5-methyloxazol-4-yl)methyl)piperidine-4-carboxamide], the PAMPA permeability was 245.3 1×10^−6 cm/s.

In the case of `Cc1ccc2ccccc2c1-c1nc(CN2CCC(C(=O)NCCCN3C[C@H](C)C[C@H](C)C3)CC2)c(C)o1` [7bbb, N-(3-(cis-3,5-Dimethylpiperidin-1-yl)propyl)-1-((5-methyl-2-(2-methylnaphthalen-1-yl)oxazol-4-yl)methyl)piperidine-4-carboxamide], the PAMPA permeability is reported as 547.1 1×10^−6 cm/s.

In the case of `Cc1ccc(-c2nc(CN3CCC(C(=O)NCCCN4C[C@H](C)C[C@H](C)C4)CC3)c(C)o2)cc1C` [7x, N-(3-(cis-3,5-Dimethylpiperidin-1-yl)propyl)-1-((2-(3,4-dimethylphenyl)-5-methyloxazol-4-yl)methyl)piperidine-4-carboxamide], the PAMPA permeability is reported as 219.4 1×10^−6 cm/s.
